Laboratory results taken from patent publication US9624170B2, “4-(piperrazin-1-yl)-pyrrolidin-2-one compounds as monoacylglycerol lipase (MAGL) inhibitors” (TAKEDA PHARMACEUTICAL COMPANY LIMITED, priority 2013, dated 2017).

Target: T1, human MAGL (His-hMAGL) (Homo sapiens, UniProt Q99685)
T1 construct: made in house; host or cells: Escherichia coli BL21(DE3)
T1 sequence (Q99685 1-303): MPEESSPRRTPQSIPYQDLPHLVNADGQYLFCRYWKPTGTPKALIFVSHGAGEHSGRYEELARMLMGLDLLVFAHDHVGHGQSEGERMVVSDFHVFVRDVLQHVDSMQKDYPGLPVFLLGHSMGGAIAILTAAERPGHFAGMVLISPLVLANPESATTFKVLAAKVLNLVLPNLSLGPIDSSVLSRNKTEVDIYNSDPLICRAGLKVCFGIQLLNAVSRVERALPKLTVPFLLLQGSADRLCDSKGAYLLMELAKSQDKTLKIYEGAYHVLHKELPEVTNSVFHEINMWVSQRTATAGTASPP
Experiment: Measurement of MAGL inhibitory activity by mass spectrometry
Format: biochemical
Conditions: 10 μM test compound; substrate 2-arachidonylglycerol, arachidonic acid by RapidFire-mass spectrometry
Experimental: Thereafter, to each well was added 150 μM 2-arachidonylglycerol (Tocris Bioscience) by 5 μL, and the mixture was incubated at room temperature for 10 min. Then, 2% formic acid (Wako Pure Chemical Industries, Ltd.) was added by 10 μL to discontinue the reaction. Furthermore, acetonitrile (50 μL) containing 3 μM arachidonic acid-d8 (Cayman Chemical Company) was added and the mixture was stirred. The amount of arachidonic acid in the obtained enzyme reaction mixture was calculated by measuring by RapidFire-mass spectrometry and correcting by the amount of arachidonic acid-d8. High Throughput online solid phase extraction was performed using RapidFire 300TM system (Agilent Technologies, Inc.). […] The injection needle was washed with ultrapure water (500 millisecond) and acetonitrile (500 millisecond) to minimize carry-over. […] The RapidFire300 system was controlled by RapidFire UI software version 3.6 (Agilent Technologies, Inc.). The mass spectrometry of the resultant product was performed using […] triple quadrupole mass spectrometer (AB SCIEX) equipped with an electrospray ion sauce (Turbolon SprayTM) in a negative selected reaction monitoring (SRM) mode. The conditions of SRM are shown below. The parameters of the instrument were optimized as follows: capillary temperature 600° C., ion spray voltage -4.5 kV, collision gas 8, curtain gas 15 psi, ion source gas 1 60 psi, ion source gas 2 60 psi. The mass spectrometer was controlled by AnalystTM software version 1.5.1 (AB SCIEX). The peak area integration was analyzed using RapidFire integrator software version 3.6 (Agilent Technologies, Inc.). MAGL inhibitory rate (%) was calculated according to the following calculation formula.

Row | inhibition at 10 µM | Compound
1 | 102% | O=C(c1nccs1)N1CCN(C2CC(=O)N(c3cccc(-c4ccccc4F)c3)C2)CC1 (stereo not shown) [Example 136, 1-(2′-fluorobiphenyl-3-yl)-4-(4-(1,3-thiazol-2-ylcarbonyl)piperazin-1-yl)pyrrolidin-2-one]
2 | 101% | O=C(c1nccs1)N1CCN(C2CC(=O)N(c3cccc(-c4ccccc4C(F)(F)F)c3)C2)CC1 (stereo not shown) [Example 138, 4-(4-(1,3-thiazol-2-ylcarbonyl)piperazin-1-yl)-1-(2′-(trifluorornethyl)biphenyl-3-yl)pyrrolidin-2-one]
3 | 100% | O=C(c1nccs1)N1CCN(C2CC(=O)N(c3cccc(-c4ccccc4)n3)C2)CC1 (stereo not shown) [Example 140, 1-(6-phenylpyridin-2-yl)-4-(4-(1,3-thiazol-2-ylcarbonyl)piperazin-1-yl)pyrrolidin-2-one]
4 | 98% | O=C(c1nccs1)N1CCN(C2CC(=O)N(c3ccc4c(c3)CCN4c3ncc(C(F)(F)F)cn3)C2)CC1 (stereo not shown) [Example 141, 4-(4-(1,3-Thiazol-2-ylcarbonyl)piperazin-1-yl)-1-(1-(5-(trifluoromethyl)pyrimidin-2-yl)-2,3-dihydro-1H-indol-5-yl)pyrrolidin-2-one]
5 | 100% | CCc1ccccc1-c1cccc(N2CC(N3CCN(C(=O)c4nccs4)CC3)CC2=O)c1 (stereo not shown) [Example 142, 1-(2′-ethylbiphenyl-3-yl)-4-(4-(1,3-thiazol-2-ylcarbonyl)piperazin-1-yl)pyrrolidin-2-one]
6 | 102% | Cc1cccc(-c2cccc(N3CC(N4CCN(C(=O)c5nccs5)CC4)CC3=O)c2)c1C (stereo not shown) [Example 143, 1-(2′,3′-dirnethylbiphenyl-3-yl)-4-(4-(1,3-thiazol-2-ylcarbonyl)piperazin-1-yl)pyrrolidin-2-one]
7 | 101% | Cc1ccc(C)c(-c2cccc(N3CC(N4CCN(C(=O)c5nccs5)CC4)CC3=O)c2)c1 (stereo not shown) [Example 144, 1-(2′,5′-dirnethylbiphenyl-3-yl)-4-(4-(1,3-thiazol-2-ylcarbonyl)piperazin-1-yl)pyrrolidin-2-one]
8 | 102% | O=C(c1nccs1)N1CCN(C2CC(=O)N(c3cccc(-c4c(F)cccc4F)c3)C2)CC1 (stereo not shown) [Example 145, 1-(2′,6′-Difluorobiphenyl-3-yl)-4-(4-(1,3-thiazol-2-ylcarbonyl)piperazin-1-yl)pyrrolidin-2-one]
9 | 100% | O=C(c1nccs1)N1CCN(C2CC(=O)N(c3cccc(-c4c(Cl)cccc4Cl)c3)C2)CC1 (stereo not shown) [Example 146, 1-(2′,6′-dichlorobiphenyl-3-yl)-4-(4-(1,3-thiazol-2-ylcarbonyl)piperazin-1-yl)pyrrolidin-2-one]
10 | 95% | O=C(c1nccs1)N1CCN(C2CC(=O)N(c3cccc(OC(F)(F)F)c3)C2)CC1 (stereo not shown) [Example 148, 4-(4-(1,3-thiazol-2-ylcarbonyl)piperazin-1-yl)-1-(3-(trifluoromethoxy)phenyl)pyrrolidin-2-one]
11 | 96% | Cc1ccc(-c2cccc(N3CC(N4CCN(C(=O)c5nccs5)CC4)CC3=O)c2)nc1 (stereo not shown) [Example 149, 1-(3-(5-Methylpyridin-2-yl)phenyl)-4-(4-(1,3-thiazol-2-ylcarbonyl)piperazin-1-yl)pyrrolidin-2-one]
12 | 96% | Cc1cccc(-c2cccc(N3CC(N4CCN(C(=O)c5nccs5)CC4)CC3=O)c2)n1 (stereo not shown) [Example 150, 1-(3-(6-Methylpyridin-2-yl)phenyl)-4-(4-(1,3-thiazol-2-ylcarbonyl)piperazin-1-yl)pyrrolidin-2-one]
13 | 99% | O=C(c1nccs1)N1CCN(C2CC(=O)N(c3cccc(-c4ncccc4Cl)c3)C2)CC1 (stereo not shown) [Example 151, 1-(3-(3-chloropyridin-2-yl)phenyl)-4-(4-(1,3-thiazol-2-ylcarbonyl)piperazin-1-yl)pyrrolidin-2-one]
14 | 99% | Cc1ccnc(-c2cccc(N3CC(N4CCN(C(=O)c5nccs5)CC4)CC3=O)c2)c1 (stereo not shown) [Example 152, 1-(3-(4-rnethylpyridin-2-yl)phenyl)-4-(4-(1,3-thiazol-2-ylcarbonyl)piperazin-1-yl)pyrrolidin-2-one]
15 | 101% | Cc1cccc(C#N)c1-c1cccc(N2CC(N3CCN(C(=O)c4nccs4)CC3)CC2=O)c1 (stereo not shown) [Example 154, 6-methyl-3′-(2-oxo-4-(4-(1,3-thiazol-2-ylcarbonyl)piperazin-1-yl)pyrrolidin-1-yl)biphenyl-2-carbonitrile]
16 | 99% | Cc1noc(C)c1-c1cccc(N2CC(N3CCN(C(=O)c4nccs4)CC3)CC2=O)c1 (stereo not shown) [Example 155, 1-(3-(3,5-dimethyl-1,2-oxazol-4-yl)phenyl)-4-(4-(1,3-thiazol-2-ylcarbonyl)piperazin-1-yl)pyrrolidin-2-one]
17 | 100% | CCn1nccc1-c1cccc(N2CC(N3CCN(C(=O)c4nccs4)CC3)CC2=O)c1 (stereo not shown) [Example 156, 1-(3-(1-ethyl-1H-pyrazol-5-yl)phenyl)-4-(4-(1,3-thiazol-2-ylcarbonyl)piperazin-1-yl)pyrrolidin-2-one]
18 | 99% | Cc1cc(-c2cccc(N3CC(N4CCN(C(=O)c5nccs5)CC4)CC3=O)c2)n(C)n1 (stereo not shown) [Example 157, 1-(3-(1,3-dimethyl-1H-pyrazol-5-yl)phenyl)-4-(4-(1,3-thiazol-2-ylcarbonyl)piperazin-1-yl)pyrrolidin-2-one]
19 | 99% | Cn1nc(C(F)(F)F)cc1-c1cccc(N2CC(N3CCN(C(=O)c4nccs4)CC3)CC2=O)c1 (stereo not shown) [Example 158, 1-(3-(1-methyl-3-(trifluoromethyl)-1H-pyrazol-5-yl)phenyl)-4-(4-(1,3-thiazol-2-ylcarbonyl)piperazin-1-yl)pyrrolidin-2-one]
20 | 91% | O=C(c1nccs1)N1CCN(C2CC(=O)N(c3ccccc3)C2)CC1 (stereo not shown) [Example 160, 1-phenyl-4-(4-(1,3-thiazol-2-ylcarbonyl)piperazin-1-yl)pyrrolidin-2-one]
21 | 100% | Cc1nc(C)c(-c2cccc(N3CC(N4CCN(C(=O)c5nccs5)CC4)CC3=O)c2)s1 (stereo not shown) [Example 161, 1-(3-(2,4-dimethyl-1,3-thiazol-5-yl)phenyl)-4-(4-(1,3-thiazol-2-ylcarbonyl)piperazin-1-yl)pyrrolidin-2-one]
22 | 99% | Cc1ccsc1-c1cccc(N2CC(N3CCN(C(=O)c4nccs4)CC3)CC2=O)c1 (stereo not shown) [Example 162, 1-(3-(3-methyl-2-thienyl)phenyl)-4-(4-(1,3-thiazol-2-ylcarbonyl)piperazin-1-yl)pyrrolidin-2-one]
23 | 100% | O=C(c1nccs1)N1CCN(C2CC(=O)N(c3cccc(-c4ncccc4C(F)(F)F)c3)C2)CC1 (stereo not shown) [Example 165, 4-(4-(1,3-thiazol-2-ylcarbonyl)piperazin-1-yl)-1-(3-(3-(trifluoromethyl)pyridin-2-yl)phenyl)pyrrolidin-2-one]
24 | 99% | O=C(c1ncco1)N1CCN(C2CC(=O)N(c3cccc(-c4ccccc4Cl)c3)C2)CC1 (stereo not shown) [Example 166, 1-(2′-chlorobiphenyl-3-yl)-4-(4-(1,3-oxazol-2-ylcarbonyl)piperazin-1-yl)pyrrolidin-2-one]
25 | 94% | Cc1ncccc1-c1cccc(N2CC(N3CCN(C(=O)c4ncco4)CC3)CC2=O)c1 (stereo not shown) [Example 167, 1-(3-(2-methylpyridin-3-yl)phenyl)-4-(4-(1,3-oxazol-2-ylcarbonyl)piperazin-1-yl)pyrrolidin-2-one]
26 | 101% | O=C(c1cscn1)N1CCN(C2CC(=O)N(c3cccc(-c4ccccc4Cl)c3)C2)CC1 (stereo not shown) [Example 168, 1-(2′-chlorobiphenyl-3-yl)-4-(4-(1,3-thiazol-4-ylcarbonyl)piperazin-1-yl)pyrrolidin-2-one]
27 | 97% | Cc1ncccc1-c1cccc(N2CC(N3CCN(C(=O)c4cscn4)CC3)CC2=O)c1 (stereo not shown) [Example 169, 1-(3-(2-methylpyridin-3-yl)phenyl)-4-(4-(1,3-thiazol-4-ylcarbonyl)piperazin-1-yl)pyrrolidin-2-one]
28 | 98% | O=C(c1nccs1)N1CCN(C2CC(=O)N(c3ccc(F)c(Br)c3)C2)CC1 (stereo not shown) [Example 170, 1-(3-bromo-4-fluorophenyl)-4-(4-(1,3-thiazol-2-ylcarbonyl)piperazin-1-yl)pyrrolidin-2-one]
29 | 99% | CC(C)n1nccc1-c1cccc(N2CC(N3CCN(C(=O)c4nccs4)CC3)CC2=O)c1 (stereo not shown) [Example 171, 1-(3-(1-isopropyl-1H-pyrazol-5-yl)phenyl)-4-(4-(1,3-thiazol-2-ylcarbonyl)piperazin-1-yl)pyrrolidin-2-one]
30 | 100% | Cc1ncccc1-c1cccc(N2CC(N3CCN(C(=O)c4nccs4)CC3)CC2=O)n1 (stereo not shown) [Example 174, 1-(2′-methyl-2,3′-bipyridin-6-yl)-4-(4-(1,3-thiazol-2-ylcarbonyl)piperazin-1-yl)pyrrolidin-2-one]

Same assay, conditions: 10 μM test compound; substrate 2-arachidonylglycerol, arachidonic acid by RapidFire-mass spectrometry; 10 µM

Row | % inhibition at 10 μM | Compound
31 | 83% | Cc1cccc(-c2cccc(N3CC(N4CCN(C(=O)c5nccs5)CC4)CC3=O)c2)n1 (stereo not shown) [Example 150, 1-(3-(6-Methylpyridin-2-yl)phenyl)-4-(4-(1,3-thiazol-2-ylcarbonyl)piperazin-1-yl)pyrrolidin-2-one]
